For series [1], the system named is MPTP-induced Parkinsonian mice. The series is described as follows: MPTP-induced Parkinsonian mouse rota-rod experiment. Format: in vivo, C57BL/6 male mice. To be noted: 2 mg/kg by gavage for 12 days before MPTP (20 mg/kg i.p. x4); tested 4 h, 24 h, 48 h, 72 h after modeling; FIG. 2. The text has this:
Experimental materials: 10-week-old C57BL/6 male mice (Nanjing Qinglongshan Farm), rota-rod treadmill (Beijing Zhongshi Technology), levodopa and MPTP (Sigma), test drug 4-trifluoromethyl-cinnamoyl-4-fluoro-L-phenylalanine prepared in Example 1 (Compound 2 shown), and test drug 4-hydroxy-3-methoxycinnamoyl-L-tyrosine (Compound 1 shown).
Experimental groups: Mice were randomly divided into 5 groups, 10 mice in each group: a blank group, a model group, a 4-hydroxy-3-methoxycinnamoyl-L-tyrosine (Compound 1 shown, 2 mg/kg) group, a 4-trifluoromethyl-cinnamoyl-4-fluoro-L-phenylalanine (Compound 2 shown, 2 mg/kg) group and a levodopa (15 mg/kg) group. Pre-dosing by gavage was carried out for 12 consecutive days. The blank group and the model group were given equal doses of PBS, and modeling was performed on the 13th day. The model group and the drug group were intraperitoneally injected with MPTP (20 mg/kg), once every 2 h, for 4 consecutive injections. After modeling, behavioral tests were carried out. The behavioral performance of mice was tested with a YLS-4C mouse rota-rod treadmill at 4 h, 24 h, 48 h, and 72 h after MPTP modeling. The time from the start of rotation of the rota-rod to the time leaving the rota-rod of the test mice was taken as the latency. The test time was 180 s, and each mouse was tested 3 times to obtain an average value. […]
(Falling from the rotarod earlier than controls is read as motor impairment.)

Series [2] deals with MCAO ischemia-reperfusion rats. The experiment in a line: Rat ischemia-reperfusion (MCAO) in-vivo model with TTC staining. Details: species or system Male SD rats. To be noted: 2 mg/kg by gavage daily, FIG. 3. The text has this:
Experimental materials: Male SD rats, weighing 250-300 g, provided by the Model Animal Research Center of Nanjing University and raised in the Experimental Animal Center of China Pharmaceutical University; triphenyl tetrazolium chloride (TTC) and butyphthalide purchased from Sigma; test drug 4-trifluoromethyl-cinnamoyl-4-fluoro-L-phenylalanine prepared in Example 1 (Compound 2 shown), and test drug 4-hydroxy-3-methoxycinnamoyl-L-tyrosine (Compound 1 shown).
Experimental method: The rats were randomly divided into 5 groups, i.e., a blank group, a model group (MCAO group), an MCAO+4-hydroxy-3-methoxycinnamoyl-L-tyrosine (Compound 1 shown, 2 mg/kg) group, an MCAO+4-trifluoromethyl-cinnamoyl-4-fluoro-L-phenylalanine (Compound 2 shown, 2 mg/kg) group and an MCAO+positive drug butyphthalide (5 mg/kg) group. After successful modeling, administration of different doses of compounds by gavage was carried out every day for 15 consecutive days. After the administration, brains were harvested, subjected to TTC staining, and photographed and recorded.
The effect is better than that of the positive drug and 4-hydroxy-3-methoxycinnamoyl-L-tyrosine (Compound 1 shown).

Series [3] concerns the target T1, iNOS (Mus musculus, UniProt P29477).
T1 sequence (P29477 1-1144): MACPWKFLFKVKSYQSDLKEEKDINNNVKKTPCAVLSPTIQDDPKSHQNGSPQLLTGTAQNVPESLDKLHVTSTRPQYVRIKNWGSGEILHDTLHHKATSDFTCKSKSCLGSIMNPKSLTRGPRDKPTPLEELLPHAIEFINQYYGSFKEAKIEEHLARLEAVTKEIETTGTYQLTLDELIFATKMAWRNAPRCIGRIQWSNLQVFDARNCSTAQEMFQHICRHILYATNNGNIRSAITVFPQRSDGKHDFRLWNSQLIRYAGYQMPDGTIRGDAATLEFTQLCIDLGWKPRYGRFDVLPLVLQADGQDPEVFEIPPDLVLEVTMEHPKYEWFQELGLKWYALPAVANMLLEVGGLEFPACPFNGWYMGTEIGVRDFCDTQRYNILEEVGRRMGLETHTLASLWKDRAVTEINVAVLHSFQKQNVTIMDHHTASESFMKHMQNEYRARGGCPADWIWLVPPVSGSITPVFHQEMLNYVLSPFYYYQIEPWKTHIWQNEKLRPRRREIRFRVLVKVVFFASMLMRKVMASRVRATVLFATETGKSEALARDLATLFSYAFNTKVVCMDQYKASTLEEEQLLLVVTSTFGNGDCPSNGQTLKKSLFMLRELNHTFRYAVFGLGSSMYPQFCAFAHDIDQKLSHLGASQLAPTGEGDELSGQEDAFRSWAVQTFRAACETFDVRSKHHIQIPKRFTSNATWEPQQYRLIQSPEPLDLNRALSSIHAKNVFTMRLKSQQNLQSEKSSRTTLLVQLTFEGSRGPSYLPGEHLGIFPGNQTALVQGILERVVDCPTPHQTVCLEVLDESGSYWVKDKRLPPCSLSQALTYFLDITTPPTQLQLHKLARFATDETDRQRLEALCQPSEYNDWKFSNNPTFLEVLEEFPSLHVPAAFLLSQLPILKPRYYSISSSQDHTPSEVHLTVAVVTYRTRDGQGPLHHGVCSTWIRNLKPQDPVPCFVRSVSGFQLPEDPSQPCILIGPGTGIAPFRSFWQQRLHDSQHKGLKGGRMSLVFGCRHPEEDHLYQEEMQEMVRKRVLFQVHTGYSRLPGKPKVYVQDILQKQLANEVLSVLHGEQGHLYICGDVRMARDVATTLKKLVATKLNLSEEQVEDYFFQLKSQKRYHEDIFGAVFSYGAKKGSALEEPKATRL
The experiment in a line: In vitro iNOS inhibitory effect (iNOS activity detection kit) in LPS-stimulated BV-2 cells. Format: cell-based. To be noted: compound 0.01-10 μM added 4 hours before LPS 500 ng/mL for 24 hours, FIG. 1, read-out: iNOS inhibition IC50. The procedure:
Experimental materials: BV-2 cells (purchased from Shanghai Cell Bank, Chinese Academy of Sciences), DMEM cell culture fluid (Sigma), fetal bovine serum (Gibico), 96-well cell culture plate (Corning), DMSO (Sigma), LPS (Sigma), iNOS activity detection kit (Beyotime), test drug 4-trifluoromethyl-cinnamoyl-4-fluoro-L-phenylalanine prepared in Example 1, and microplate reader.
Then according to the group, the drug or blank culture fluid was added to the corresponding group for culture for 4 hours. Finally, except the blank group, each group was stimulated with LPS with a final concentration of 500 ng/mL for 24 hours. The iNOS activity assay was performed according to the requirements of the iNOS detection kit.

The nature of series [4]: Physicochemical properties: solubility in solvents.

Take `O=C(/C=C/c1ccc(C(F)(F)F)cc1)N[C@@H](Cc1ccc(F)cc1)C(=O)O` [Compound 2, 4-trifluoromethyl-cinnamoyl-4-fluoro-L-phenylalanine]: in series [1], the “dyskinesia of the Parkinsonian mice (rota-rod)” value is recorded as “effectively alleviate the dyskinesia”. The “running time of the Parkinsonian mice (rota-rod latency)” value in series [1] was “increase the running time”. Besides, in series [2], the “size of cerebral infarction caused by ischemia reperfusion (TTC staining)” value is reported as “effectively reduce the increase in the size of cerebral infarction”. Also, in series [3], the IC50 – broadly, the concentration that gives 50% inhibition – was determined as 110 nM. Also, the solubility result in series [4] (dichloromethane) is on record as “soluble”; in series [4] (methanol, acetone, ethyl acetate), “easily soluble”; in series [4] (petroleum ether, water) it was “insoluble”.

The record behind these values is patent US12723018B2, “Cinnamoyl amino acid compound and use thereof” (CHINA PHARMACEUTICAL UNIVERSITY, priority 2020, dated 2026).
